From PMC8871619, “Pogostone inhibits the activity of CYP3A4, 2C9, and 2E1 in vitro” (Pharmaceutical Biology, 2021)

How the values were obtained:
CYP2C9 [1] = molecular target: T1, CYP2C9 (Homo sapiens, UniProt P11712); test: Inhibition of CYP2C9 (diclofenac 4′-hydroxylation) in human liver microsomes; format: in vitro ADME
T1 construct: Pooled human liver microsomes (HLMs) were purchased from BD Biosciences; tissue BD Biosciences; host or cells: pooled human liver microsomes
Protocol: (§1) The effect of pogostone on the activity of CYP450s was investigated with probe reactions (summarized in Table 1) in HLMs in accordance with previous studies (Zhang et al. [2007], [2020]). All incubations were conducted in triplicate with a volume of 200 μL, containing 100 mM potassium phosphate buffer (pH 7.4), NADPH-generating system (1 mM NADP^+, 10 mM glucose-6-phosphate, 1 U/mL of glucose-6-phosphate dehydrogenase, and 4 mM MgCl2), corresponding probe substrates, HLM, and 100 μM pogostone or positive inhibitors. The concentrations of positive inhibitors were: 10 μM furafylline for CYP1A2, 1 μM ketoconazole for CYP3A4, 10 μM tranylcypromine for CYP2A6, 50 μM clomethiazole for CYP2E1, 10 μM quinidine for CYP2D6, 10 μM sulphaphenazole for CYP2C9, 50 μM tranylcypromine for CYP2C19, and 5 μM montelukast for CYP2C8.
(§2) A 3 min preincubation was performed at 37 °C before the reactions were initiated by the addition of the NADPH-generating system. After the incubation, 100 μL acetonitrile or 10% trichloroacetic (for CYP2A6) was added to terminate the reactions and placed on ice. The mixture was centrifuged at 12,000 rpm for 10 min, and an aliquot (50 μL) of supernatant was transferred for corresponding metabolites analysis with HPLC.
(§3) The effect of pogostone on the activity of CYP450s was first investigated with 100 μM pogostone in HLMs. Then, the CYPs, of which the activity was inhibited by pogostone were incubated with 0, 2.5, 5, 10, 25, 50, and 100 μM pogostone and different probe substrates (20, 40, 60, and 100 μM testosterone for CYP3A4, 5, 10, 15, and 20 μM diclofenac for CYP2C9, or 25, 50, 150, and 250 μM chlorzoxazone for CYP2E1) to obtained the corresponding kinetic parameters, such as IC50 and Ki values.
(§4) The Lineweaver-Burk plots were used to obtain enzyme kinetic parameters by the least-squares linear regression of the inverse substrate concentration versus the inverse velocity. Inhibition data from the experiments that were conducted using multiple compound concentrations were represented by Dixon plots, and inhibition constant (Ki) values were calculated using non-linear regression according to the following equation: V=(VmaxS)/(Km(1+I/Ki)+S) where I is the concentration of the compound, Ki is the inhibition constant, S is the concentration of the substrate and Km is the substrate concentration at half the maximum velocity (Vmax) of the reaction. The mechanism of the inhibition was inspected using the Lineweaver–Burk plots and the enzyme inhibition models. The data comparison was performed using the Student’s t-test and performed using IBM SPSS statistics 20 (SPSS Inc., Chicago, IL, USA).

CYP2E1 [2] = molecular target: T2, CYP2E1 (Homo sapiens, UniProt P05181); test: Inhibition of CYP2E1 (chlorzoxazone 6-hydroxylation) in human liver microsomes; format: in vitro ADME
T2 construct: Pooled human liver microsomes (HLMs) were purchased from BD Biosciences; tissue BD Biosciences; host or cells: pooled human liver microsomes
T2 sequence (P05181 whole entry): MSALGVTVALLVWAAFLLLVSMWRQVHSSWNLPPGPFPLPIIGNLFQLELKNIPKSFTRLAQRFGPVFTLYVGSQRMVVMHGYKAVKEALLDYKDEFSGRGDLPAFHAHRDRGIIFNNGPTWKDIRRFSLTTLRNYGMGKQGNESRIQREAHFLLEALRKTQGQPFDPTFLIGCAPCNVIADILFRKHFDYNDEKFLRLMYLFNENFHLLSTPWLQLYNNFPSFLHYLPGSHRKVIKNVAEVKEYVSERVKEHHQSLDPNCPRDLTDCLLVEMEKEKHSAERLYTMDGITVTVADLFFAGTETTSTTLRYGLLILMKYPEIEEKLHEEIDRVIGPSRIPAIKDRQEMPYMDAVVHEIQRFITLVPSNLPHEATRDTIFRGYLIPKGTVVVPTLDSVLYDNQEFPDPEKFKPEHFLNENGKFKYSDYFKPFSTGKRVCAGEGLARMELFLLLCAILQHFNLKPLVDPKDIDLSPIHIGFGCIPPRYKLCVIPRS
Protocol: as §1, §2, §3, §4

CYP3A4 [3] = molecular target: T3, CYP3A4 (Homo sapiens, UniProt P08684); test: Inhibition of CYP3A4 (testosterone 6β-hydroxylation) in human liver microsomes; format: in vitro ADME
T3 construct: Pooled human liver microsomes (HLMs) were purchased from BD Biosciences; tissue BD Biosciences; host or cells: pooled human liver microsomes
T3 sequence (P08684 whole entry): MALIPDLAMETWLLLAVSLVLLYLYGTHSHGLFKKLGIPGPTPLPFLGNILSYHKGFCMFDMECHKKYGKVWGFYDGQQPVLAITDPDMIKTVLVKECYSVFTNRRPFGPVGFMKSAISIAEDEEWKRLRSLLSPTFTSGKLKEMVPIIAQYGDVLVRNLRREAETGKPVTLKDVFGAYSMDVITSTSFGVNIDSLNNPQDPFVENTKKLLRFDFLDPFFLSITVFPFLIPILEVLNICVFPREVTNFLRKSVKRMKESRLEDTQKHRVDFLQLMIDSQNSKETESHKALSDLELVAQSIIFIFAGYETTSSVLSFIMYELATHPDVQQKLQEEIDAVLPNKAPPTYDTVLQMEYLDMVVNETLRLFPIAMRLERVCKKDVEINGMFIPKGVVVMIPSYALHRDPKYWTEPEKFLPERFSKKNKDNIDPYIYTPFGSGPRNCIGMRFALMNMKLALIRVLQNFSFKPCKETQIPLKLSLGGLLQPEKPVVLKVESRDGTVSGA
Protocol: as §1, §2, §3, §4

CYP3A4 [4] = molecular target: T3, CYP3A4; test: Time-dependent inhibition study of CYP3A4 in human liver microsomes; format: in vitro ADME
Protocol: (§5) The effect of incubation on the inhibitory effect of pogostone was evaluated by incubating for 0, 5, 10, 15, and 30 min at 37 °C. The concentration of pogostone in the time-dependent inhibition study was 20 μM with the 1 mg/mL HLMs. After incubation, an aliquot (20 μL) was transferred to another incubation tube (a final volume of 200 μL) containing an NADPH-generating system and probe substrates whose final concentrations were approximate to Km. Then, further incubations were performed to measure the residual activity. After being incubated for 10 and 30 min, the reactions were terminated by adding a 100 μL acetonitrile internal standard mix and then placed on ice; the corresponding metabolites were determined by HPLC.
Further experiments were performed to quantify the time-dependent inhibition by the KI and Kinact values. The incubation was conducted with a higher substrate concentration, which was about 4-fold to Km and 0, 2, 5, 10, 20, and 50 μM pogostone for 0, 5, 10, 15, and 30 min. A two-step incubation scheme was performed as described above.

[5] = design: method as in Chen et al. [2013]; conditions: rats, oral administration, 5 mg/kg pogostone; ref Chen et al. [2013]; cited from earlier work
CYP2E1 [6] = molecular target: T2, CYP2E1; test: Time-dependent inhibition study of CYP2E1 in human liver microsomes; format: in vitro ADME; conditions: 20 μM pogostone, 0-30 min, 1 mg/mL HLMs
Protocol: as §5

CYP2C9 [7] = molecular target: T1, CYP2C9; test: Time-dependent inhibition study of CYP2C9 in human liver microsomes; format: in vitro ADME; conditions: 20 μM pogostone, 0-30 min, 1 mg/mL HLMs
Protocol: as §5

[8] = 100 μM pogostone, HLMs, p < 0.05
[9] = HLMs, 0-50 μM pogostone, 0-30 min preincubation, substrate about 4-fold Km

T1 sequence (P11712 whole entry): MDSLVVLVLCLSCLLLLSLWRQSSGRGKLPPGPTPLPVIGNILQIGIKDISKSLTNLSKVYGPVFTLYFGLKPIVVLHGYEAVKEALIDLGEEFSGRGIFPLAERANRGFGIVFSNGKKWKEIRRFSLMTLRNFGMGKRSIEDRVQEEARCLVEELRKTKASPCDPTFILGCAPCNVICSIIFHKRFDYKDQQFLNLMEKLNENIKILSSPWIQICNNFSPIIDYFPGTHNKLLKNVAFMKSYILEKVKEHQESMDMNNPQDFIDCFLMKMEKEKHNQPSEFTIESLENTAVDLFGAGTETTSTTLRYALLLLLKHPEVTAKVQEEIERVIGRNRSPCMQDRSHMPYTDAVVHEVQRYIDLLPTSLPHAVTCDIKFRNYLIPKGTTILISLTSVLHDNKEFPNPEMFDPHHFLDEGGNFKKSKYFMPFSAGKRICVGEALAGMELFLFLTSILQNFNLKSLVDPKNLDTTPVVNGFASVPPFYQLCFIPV

- Activity of CYP2C9 compared with negative control (CYP2C9 [1]; [8]): significantly inhibited
- IC50 (CYP2C9 [1]; HLMs, 0-100 μM pogostone, diclofenac substrate): 12.1 µM
- Ki (CYP2C9 [1]; HLMs, Lineweaver-Burk, diclofenac): 6.46 µM
- Type of inhibition of CYP2C9 (CYP2C9 [1]; Lineweaver-Burk analysis): competitive
- Activity of CYP2E1 compared with negative control (CYP2E1 [2]; [8]): significantly inhibited
- IC50 (CYP2E1 [2]; HLMs, 0-100 μM pogostone, chlorzoxazone substrate): 14.9 µM
- Ki (CYP2E1 [2]; HLMs, Lineweaver-Burk, 25-250 μM chlorzoxazone): 7.67 µM
- Type of inhibition of CYP2E1 (CYP2E1 [2]; Lineweaver-Burk analysis): competitive
- Activity of CYP3A4 compared with negative control (CYP3A4 [3]; [8]): significantly inhibited
- IC50 (CYP3A4 [3]; HLMs, 0-100 μM pogostone, testosterone substrate): 11.4 µM
- Ki (CYP3A4 [3]; HLMs, Lineweaver-Burk, 20-100 μM testosterone): 5.69 µM
- Type of inhibition of CYP3A4 (CYP3A4 [3]; Lineweaver-Burk analysis): non-competitive
- Effect of incubation time on inhibition of CYP3A4 (CYP3A4 [4]; 20 μM pogostone, 0-30 min, 1 mg/mL HLMs): time-dependent
- KI value of CYP3A4 (time-dependent inhibition) (CYP3A4 [4]; [9]): 5.86 µM
- Kinact value of CYP3A4 (time-dependent inhibition) (CYP3A4 [4]; [9]): 0.056 min⁻¹
- Effect of incubation time on inhibition of CYP2E1 (CYP2E1 [6]): no significant effect
- Effect of incubation time on inhibition of CYP2C9 (CYP2C9 [7]): no significant effect
Structure (SMILES): Cc1cc(O)c(C(=O)CCC(C)C)c(=O)o1 [pogostone, Pogostone]
- Cmax [5]: 28990 ng/mL
